Results: US20080287653A1, “METHOD FOR PRODUCING INHIBITORS AND INHIBITORS FORMED THEREFROM” (THE UNIVERSITY OF AKRON, priority 2007, published 2008)
Non-standard residues stand in square brackets, D forms with d. Residues, ends and D or L forms follow the SMILES beside them. Lys(Thioacetyl) = CC(=S)NCCCC[C@H](N)C(=O)O

Columns and labels:
[1] = tested on: SIRT1, SIRT2, and SIRT3; test: Dethioacetylation of inhibitor peptides under the sirtuin inhibition assay conditions; type: biochemical, human; conditions: same assay conditions as SIRT1/SIRT2/SIRT3 inhibition assays
Description: Inhibition assays with purified SIRT1, SIRT2, and SIRT3. GST-SIRT1 that could be produced in a laboratory was used for the SIRT1 inhibition assay. SIRT2 and SIRT3 are obtainable from commercial sources known to those skilled in the art. Consistent HPLC-based assay procedures were used for the inhibition assays with SIRT1, SIRT2, and SIRT3. In brief, an inhibition assay solution had the following components: 25 mM (or 50 mM for SIRT2 assay) Tris.HCl (pH 8.0) 137 mM NaCl, 2.7 mM KCl, 1 mM MgCl2, 1 mg/mL BSA (SIGMA Cat. #A3803 with reduced fatty acid content, for SIRT2 assay only), 0.5 mM β-NAD^+, 0.3 mM peptide substrate (peptide 1b for SIRT1 and SIRT2 assays; peptide 3b for SIRT3 assay), an inhibitor (peptide 1a, 2, or 3a) with varied concentrations including 0, and an enzyme (GST-SIRT1, 0.15 μM; SIRT2, 0.3 μM; or SIRT3, 2.0 μM). […] An enzymatic reaction was initiated by the addition of an enzyme at 37° C. and was allowed to be incubated at 37° C.: 10 minutes as follows: for SIRT1 assay, or 60 minutes for SIRT2 and SIRT3 assays. Incubation was quenched at the indicated time with the following stop solution: 100 mM HCl and 0.16 M acetic acid. The conversion of the limiting substrate to the product was maintained at ≦12%. The quenched assay solutions were directly injected into a reversed-phase HPLC C18 column (100 Å, 0.46×25 cm), eluting with the following gradients of ddH2O containing 0.05% (v/v) trifluoroacetic acid (mobile phase A) and acetonitrile containing 0.05% (v/v) trifluoroacetic acid (mobile phase B): linear increase from 0% B to 35% B (for SIRT1 assay) or 40% B (for SIRT2 and SIRT3 assays) from 0-40 minutes (1 mL/min), and UV monitoring at 214 nm. The enzymatic deacetylation products (peptide 1c in SIRT1 and SIRT2 assays; peptide 3c in SIRT3 assay) were confirmed by their comigration with the chemically synthesized authentic samples and by MALDI-TOF mass spectrometric analysis, and were quantified by HPLC peak integration and comparison with those of synthetic authentic samples. […] All peptide stock solutions were prepared in ddH2O. […]

[2] = target: T1, HDAC8 (Homo sapiens, UniProt Q9BY41); test: HPLC-based assay with purified HDAC8 (de(thio)acetylation of peptides); type: biochemical; design: key to HDAC8 (sensitive / resistant to HDAC8): +: Sensitive to HDAC8; —: Resistant to HDAC8; conditions: for formation of de(thio)acetylated peptide product by HDAC8: 0.3 mM peptide, 1.5 μM HDAC8, 2 hours at room temperature; for HDAC8 (sensitive / resistant to HDAC8): enzymatic dethioacetylation by HDAC8
T1 construct: purchased
T1 sequence (Q9BY41 1-377): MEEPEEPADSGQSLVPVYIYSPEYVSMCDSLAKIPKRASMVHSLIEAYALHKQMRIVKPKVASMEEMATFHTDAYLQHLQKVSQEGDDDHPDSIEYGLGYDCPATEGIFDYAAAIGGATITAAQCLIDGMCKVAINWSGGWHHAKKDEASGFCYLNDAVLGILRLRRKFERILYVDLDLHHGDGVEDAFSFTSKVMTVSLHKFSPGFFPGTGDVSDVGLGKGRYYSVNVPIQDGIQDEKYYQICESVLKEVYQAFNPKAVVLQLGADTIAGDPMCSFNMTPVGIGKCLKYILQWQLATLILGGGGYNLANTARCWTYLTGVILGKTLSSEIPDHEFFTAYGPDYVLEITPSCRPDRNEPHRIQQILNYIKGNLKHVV
Description: To test the foregoing premise, peptides 1b, 2, and 3a were allowed to be incubated for 2 hours at room temperature in the HDAC8 assay buffer in a HPLC-based HDAC8 assay. […] FIG. 5 provides representative HPLC chromatograms from HDAC8 assays with peptides 1b, 2, and 3a. All assays were performed in duplicate and essentially the same HPLC chromatograms were obtained for the duplicates. The small peak with tR˜27 minutes in the second chromatogram was from a minor impurity in the purified peptide 2 sample, rather than the dethioacetylated product. The lack of detectable dethioacetylation of peptide 3a was apparent from the absence of a peak with tR˜34 minutes, shown for peptide 3c in the third chromatogram.
Assay with purified HDAC8. The purified HDAC8 could be obtained from a commercial source for use with a HPLC-based HDAC8 assay. In brief, a HDAC8 assay solution had the following components: 25 mM Tris.HCl (pH 8.0), 137 mM NaCl, 2.7 mM KCl, 1 mM MgCl2, 1 mg/mL BSA (SIGMA Cat. #A3803 with reduced fatty acid content), 0.3 mM peptide 1b, 2, or 3a, and 1.5 μM HDAC8. […] An enzymatic reaction was initiated by the addition of HDAC8 at room temperature and was allowed to be incubated at room temperature for 2 hours before being quenched with the following stop solution: 1.0 M HCl and 0.16 M acetic acid. The quenched assay solutions were directly injected into a reversed-phase HPLC C18 column (100 Å, 0.46×25 cm), eluting with the following gradients of ddH2O containing 0.05% (v/v) trifluoroacetic acid (mobile phase A) and acetonitrile containing 0.05% (v/v) trifluoroacetic acid (mobile phase B): linear increase from 0% B to 35% B (for the assay with peptide 2 or 1b) or 40% B (for the assay with peptide 3a or […]) from 0-40 minutes (1 mL/min), and UV monitoring at 214 nm. […] The enzymatically formed peptide 1c was confirmed by its comigration with the chemically synthesized authentic sample and by MALDI-TOF mass spectrometric analysis, and was quantified by HPLC peak integration and comparison with that of synthetic authentic sample.

formation of de(thio)acetylated peptide product by HDAC8 [2] | HDAC8 (sensitive / resistant to HDAC8) [2] | SMILES | formation of dethioacetylated peptide under sirtuin inhibition assay conditions [1]
no detectable formation | —^d | CC[C@H](C)[C@H](NC(=O)[C@@H](NC(=O)[C@H](CCCCNC(C)=S)NC(=O)[C@H](CC(=O)O)NC(=O)[C@H](CO)NC(=O)[C@@H]1CCCN1C(=O)[C@@H](N)CCSC)[C@@H](C)O)C(=O)NCC(=O)NCC(=O)O [Peptide 2] (H-MPSD[Lys(Thioacetyl)]TIGG-OH) | detectable formation
no detectable formation | — | CC[C@H](C)[C@H](NC(=O)[C@@H](NC(=O)[C@H](CCCCN)NC(=O)[C@H](CCCNC(=N)N)NC(=O)[C@H](CC(C)C)NC(=O)[C@H](CC(C)C)NC(=O)[C@H](CCCNC(=N)N)NC(=O)[C@H](CCCNC(=N)N)NC(=O)[C@H](CCSC)NC(=O)[C@@H](NC(=O)[C@H](CCCCNC(C)=S)NC(=O)CNC(=O)[C@H](CO)NC(=O)[C@H](CCCNC(=N)N)NC(=O)[C@@H](NC(=O)[C@H](CCCCN)NC(=O)[C@@H]1CCCN1C(=O)[C@H](CC(C)C)NC(=O)[C@H](CCCNC(=N)N)NC(=O)[C@@H](N)CCCCN)[C@@H](C)O)C(C)C)[C@@H](C)CC)C(=O)O [Peptide 3a] (H-KRLPKTRSG[Lys(Thioacetyl)]VMRRLLRKII-OH) | did not give rise to detectable formation
